Common to all, as to assay: growth of human tumour cells (NCI), 48 h
Experiment [1] has as its system A498.
The subject of experiment [2] is ACHN.
Experiment [3] concerns BT-549.
The subject of experiment [4] is HCC 2998.
Experiment [5] deals with HCT-116.
In experiment [6] the test system is HL-60.
In experiment [7] the test system is Hs-578T.
The subject of experiment [8] is IGROV-1.
The subject of experiment [9] is K562.
The test system of experiment [10] is MDA-MB-435.
Experiment [11] concerns NCI-H23.
Experiment [12] relates to OVCAR-4.
Experiment [13] relates to PC-3.
Experiment [14] has as its system SK-MEL-28.
Experiment [15] concerns SK-MEL-2.
Experiment [16] has as its system SK-OV-3.
In experiment [17] the test system is T47D.
The subject of experiment [18] is UACC-257.
Experiment [19] has as its system MDA-MB-231.

Values joined by “and” are separate entries in the source; they are usually repeats but may differ in a detail not shown here. Equal values may be shown once.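 Compound exposure: 48 hours, 5 concentrations, 96-well plates. GI50 marks 50% less growth.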 Active and inactive are the calls of the source. Cut-off read from the data, not from the text of the source: active = GI50 up to about 1.1 µM and inactive = higher.

For the compound `COc1ccc(C2=NN(C(=N)S)C(c3ccccc3)C2)cc1` (configuration not stated), the GI50 is 22.8 µM (inactive) in experiment [1]; 36.9 µM (inactive) in experiment [2]; 38.2 µM (inactive) in [3]; 44.8 µM (inactive) in experiment [4]; 31.5 µM (inactive) in [5]; 18.2 µM (inactive) in experiment [6]. Besides, the GI50 in experiment [7] was 75.7 µM (inactive); in experiment [8] it was 48.4 µM (inactive); in experiment [9], 30.1 µM (inactive); in experiment [10], 31 µM (inactive); in experiment [11] it was 34 µM (inactive); in [12], 30.3 µM (inactive). Besides, the GI50 in experiment [13] is 34 µM (inactive); in experiment [14], 91 µM (inactive); in experiment [15], 29.4 µM (inactive); in [16], 46.6 µM (inactive); in experiment [17] it was 29.9 µM (inactive); in experiment [18], 29.2 µM (inactive).

For the compound `NCCC(=O)N[C@@H](Cc1cc(O)c(O)c(SCC(NC(=O)CC[C@H](N)C(=O)O)C(=O)NCC(=O)O)c1)C(=O)O` (some centres not stated), the GI50 in experiment [1], in experiment [2], in experiment [3], in experiment [4], in experiment [5] and in experiment [8] was > 50 µM (inactive) in each case. In addition, the GI50 in [9], in experiment [19], in experiment [10], in experiment [11], in experiment [12] and in experiment [13] was > 50 µM (inactive) in each case. For the same compound, the GI50 in experiment [14], in [15], in [16] and in experiment [18] was > 50 µM (inactive) in each case.

`COc1cc(/C=C2\S/C(=N/Nc3nc(-c4ccc(Br)cc4)cs3)NC2=O)cc(OC)c1OC`: the GI50 was 11 µM (inactive) in [2]; 7.82 µM (inactive) in experiment [3]; 16.3 µM (inactive) in experiment [4]; 4.49 µM (inactive) in [5]; 2.08 µM (inactive) in experiment [6]; 11.9 µM (inactive) in [7]. Also, the GI50 in experiment [8] was 12 µM (inactive); in [19], 14.3 µM (inactive); in experiment [10] it was 15.5 µM (inactive); in experiment [11] it was 5.11 µM (inactive); in [12] it was 17.8 µM (inactive); in [13] it was 4.03 µM (inactive). Besides, the GI50 was 10.4 µM (inactive) in experiment [14], 15.1 µM (inactive) in experiment [15], 13 µM (inactive) in experiment [16] and 18.2 µM (inactive) in experiment [18].

Take `COc1ccc(-c2c(C#N)c(N)n(C3OCC(OC(C)=O)C(OC(C)=O)C3OC(C)=O)c(=S)c2C#N)cc1` (configuration not stated): the GI50 in [1] was 32.7 µM (inactive) and 28.2 µM (inactive); in experiment [2] it was 48.9 µM (inactive) and 40.6 µM (inactive); in [3], 20.7 µM (inactive) and 16.4 µM (inactive); in experiment [4], 37.8 µM (inactive) and 26.6 µM (inactive); in experiment [5], 41.1 µM (inactive) and 52.2 µM (inactive); in experiment [6], 17.4 µM (inactive) and 15.2 µM (inactive). For the same compound, the GI50 in experiment [8] is 77.1 µM (inactive) and 63.4 µM (inactive); in experiment [19], 41.7 µM (inactive) and 33 µM (inactive); in [10], 25.3 µM (inactive) and 35.7 µM (inactive); in [11], > 100 µM (inactive); in experiment [12] it was 47.3 µM (inactive) and 48.3 µM (inactive); in experiment [13], 32.9 µM (inactive) and 34.4 µM (inactive). Further, the GI50 in experiment [14] was 61.4 µM (inactive) and 60.3 µM (inactive); in experiment [15], 22.3 µM (inactive) and 40.7 µM (inactive); in experiment [16] it was 42.8 µM (inactive) and 24 µM (inactive); in experiment [17], 14.8 µM (inactive) and 26.7 µM (inactive); in experiment [18] it was > 100 µM (inactive).

On to `CCCCCCCCCCCCC/C=C(/COCC[N+](C)(C)C)OC(C)=O.CCCCCCCCCCCCCC/C(=C/OCC[N+](C)(C)C)OC(C)=O`, for which the GI50 in experiment [1] was 2.49 µM (inactive); in experiment [2], 1.65 µM (inactive); in experiment [3], 1.45 µM (inactive); in experiment [4] it was 4.04 µM (inactive); in [5] it was 0.643 µM (active); in experiment [6], 1.64 µM (inactive). Also, the GI50 in experiment [7] was 1.91 µM (inactive); in experiment [8], 1.69 µM (inactive); in experiment [9] it was 1.71 µM (inactive); in experiment [19], 1.78 µM (inactive); in experiment [10], 2.58 µM (inactive); in experiment [11] it was 1.9 µM (inactive). In addition, the GI50 in [12] was 1.95 µM (inactive); in experiment [13], 2.08 µM (inactive); in [14] it was 6.5 µM (inactive); in [16], 4.63 µM (inactive); in experiment [18], 2.99 µM (inactive).

For `O=c1[nH]c(Nc2nc3ccccc3[nH]2)nc2c1CCC2`, the GI50 in [1] is > 100 µM (inactive); in experiment [2], > 100 µM (inactive); in experiment [3], 35.5 µM (inactive); in [4], > 100 µM (inactive); in [5] it was > 100 µM (inactive); in experiment [6], > 100 µM (inactive). For the same compound, the GI50 in experiment [7] is 22.6 µM (inactive); in experiment [8], > 100 µM (inactive); in [9] it was > 100 µM (inactive); in experiment [19], 14.8 µM (inactive); in experiment [10], > 100 µM (inactive); in [11], 74.3 µM (inactive). Moreover, the GI50 in [12] is 90.2 µM (inactive); in experiment [13], > 100 µM (inactive); in experiment [14], 82 µM (inactive); in experiment [15], > 100 µM (inactive); in experiment [16], 41.8 µM (inactive); in experiment [18], > 100 µM (inactive).

Regarding `C=C1CC[C@]2(C)[C@H](CC[C@@]34C[C@@H](CC[C@H]32)[C@@H](C(=O)O)C4)C1(C)C`, the GI50 is 3.69 µM (inactive) in experiment [1]; 8.63 µM (inactive) in experiment [2]; > 12.5 µM (inactive) in experiment [3]; > 12.5 µM (inactive) in [5]; 4.7 µM (inactive) in experiment [6]; 6.68 µM (inactive) in experiment [7]. The GI50 in experiment [8] was > 12.5 µM (inactive); in experiment [9] it was 4.21 µM (inactive); in experiment [19], > 12.5 µM (inactive); in [10], > 12.5 µM (inactive); in [11], > 12.5 µM (inactive); in experiment [12], > 12.5 µM (inactive). Further, the GI50 is 10.3 µM (inactive) in [13]; > 12.5 µM (inactive) in experiment [14]; > 12.5 µM (inactive) in experiment [15]; > 12.5 µM (inactive) in experiment [16]; > 12.5 µM (inactive) in experiment [18].

`OC(CC(c1ccccc1)c1ccc(Cl)cc1)c1ccc(Cl)cc1` (configuration not stated): the GI50 in experiment [1] is 25.8 µM (inactive); in experiment [2] it was 27.1 µM (inactive); in experiment [3], 56.6 µM (inactive); in experiment [4], 45.5 µM (inactive); in experiment [5], 31.3 µM (inactive); in experiment [6], 24.9 µM (inactive). Moreover, the GI50 in experiment [7] is 48.1 µM (inactive); in experiment [8] it was 35.8 µM (inactive); in experiment [9], 32.4 µM (inactive); in experiment [10], 27.4 µM (inactive); in experiment [11], 29.7 µM (inactive); in experiment [12] it was 31.3 µM (inactive). Also, the GI50 in [13] was 34.9 µM (inactive); in [14], 51.6 µM (inactive); in experiment [15], 24 µM (inactive); in experiment [16] it was 36.1 µM (inactive); in [17], 32.6 µM (inactive); in [18] it was 29.4 µM (inactive).

The values above are taken from ChEMBL document CHEMBL1201862, “PubChem BioAssay data set” (2004).
